Test results published in patent US9101133B2, “Phenyl-substituted bicyclooctane-1,3-dione-derivatives” (BAYER INTELLECTUAL PROPERTY GMBH, priority 2010, dated 2015).

Legend:
Assay type in all cases: in vivo
[1] = tested on: LOLMU; test: Herbicidal post-emergence action; details: 80 g/ha, visual assessment after about three weeks, 100% = plants have died
Protocol: (§1) 2. Herbicidal Post-Emergence Action
(§2) • Seeds of monocotylidonous and dicotylidonous weed and crop plants are placed in sandy loam in wood fibre pots, covered with soil and cultivated in a greenhouse under good growth conditions. Two to three weeks after sowing, the test plants are treated at the one-leaf stage. The test compounds, formulated as wettable powders (WP), are then with a water application rate of 600 l/ha (converted), with 0.2% of wetting agent added, sprayed onto the green parts of the plants in different amounts. After the test plants have been kept in the greenhouse under optimum growth conditions for about three weeks, the effect of the preparations is assessed visually in comparison to untreated controls (herbicidal effect in percent: 100% effect=the plants have died, 0% effect=like control plants). Post-Emergence, 80 g/ha

[2] = tested on: SETVI; test: Herbicidal post-emergence action; details: visual assessment after about three weeks, 100% = plants have died; for herbicidal effect in percent, SETVI: 80 g/ha; for pest or weed control at 80 g/ha: 504 h, read-out: herbicidal effect in percent, SETVI
Protocol: as §1, §2

[3] = tested on: ECHCG; test: Herbicidal post-emergence action; details: 80 g/ha, visual assessment after about three weeks, 100% = plants have died
Protocol: as §1, §2

[4] = tested on: ALOMY; test: Herbicidal post-emergence action; details: 80 g/ha, visual assessment after about three weeks, 100% = plants have died
Protocol: as §1, §2

[5] = tested on: AVEFA; test: Herbicidal post-emergence action; details: 80 g/ha, visual assessment after about three weeks, 100% = plants have died
Protocol: as §1, §2

[6] = tested on: monocotylidonous and dicotylidonous weed and crop plants; test: Herbicidal pre-emergence action; details: 320 g/ha, visual assessment after three weeks, 100% = plants have died; for herbicidal effect in percent, AVEFA: AVEFA = Avena fatua; for herbicidal effect in percent, ECHCG: ECHCG = Echinochloa crus-galli; for herbicidal effect in percent, LOLMU: LOLMU = Lolium multiflorum; for herbicidal effect in percent, ALOMY: ALOMY = Alopecurus myosuroides; for herbicidal effect in percent, SETVI: SETVI = Setaria viridis
Text: 1. Herbicidal Pre-Emergence Action
• Seeds of monocotylidonous and dicotylidonous weed and crop plants are placed in sandy loam in wood fibre pots and covered with soil. The test compounds, formulated in the form of wettable powders (WP), are then, as an aqueous suspension with a water application rate of 600 l/ha (converted), with 0.2% of wetting agent added, applied to the surface of the covering soil in different amounts. • After the treatment, the pots are placed in a greenhouse and kept under good growth conditions for the test plants. The visual assessment of the emergence damage on the test plants is carried out after a trial period of three weeks by comparison with the untreated controls (herbicidal effect in percent: 100% effect=the plants have died, 0% effect=like control plants).

SMILES | herbicidal effect in percent, LOLMU [1] | herbicidal effect in percent, SETVI [2] | herbicidal effect in percent, ECHCG [3] | herbicidal effect in percent, ALOMY [4] | herbicidal effect in percent, AVEFA [5] | herbicidal effect in percent, AVEFA [6] | herbicidal effect in percent, ECHCG [6] | herbicidal effect in percent, LOLMU [6] | pest or weed control at 80 g/ha [2] | herbicidal effect in percent, ALOMY [6] | herbicidal effect in percent, SETVI [6] | herbicidal effect in percent, VIOTR ([6]; VIOTR = Viola tricolor)
Cc1cc(C)c(C2C(=O)C3CC(C4OCCCO4)CC3C2=O)c(C)c1 (mixture of isomers) [I-a-32] | 90% | 90% | 80% |  |  |  |  |  |  |  |  | 
CCc1cc(C)cc(CC)c1C1C(=O)C2CC(CSC)CC2C1=O (mixture of isomers) [I-a-60] | 90% | 90% | 100% | 90% | 90% |  |  |  |  |  |  | 
CCc1cc(C)cc(CC)c1C1C(=O)C2CC(CO)CC2C1=O (stereo not shown) [I-a-7] | 100% | 80% | 100% | 100% | 70% | 80% | 100% | 100% |  |  |  | 
CCOC(=O)OC1=C(c2c(CC)cc(C)cc2CC)C(=O)C2CC(CCC(C)=NOC)CC12 (mixture of isomers) [I-c-24] | 100% | 100% | 100% | 90% | 80% |  |  |  |  |  |  | 
CCc1cc(C)cc(CC)c1C1C(=O)C2CC(C(C)O)CC2C1=O (mixture of isomers) [I-a-41] | 100% | 100% | 100% | 100% | 100% |  |  |  |  |  |  | 
CCOC(=O)CC1CC2C(=O)C(c3c(CC)cc(C)cc3CC)=C(OCC)C2C1 (mixture of isomers) [I-a-81] | 80% | 90% | 80% | 80% |  |  |  |  |  |  |  | 
CCc1cc(C)cc(CC)c1C1C(=O)C2CC(CCC(C)=O)CC2C1=O (stereo not shown) [I-a-39, 2-(2,6-diethyl-4-methylphenyl)-5-(3-oxobutyl)-tetrahydropentalene-1,3-dione] | 100% |  | 100% | 100% |  |  |  |  | 100% |  |  | 
CCc1cc(C)cc(CC)c1C1=C(OC(=O)OC(C)C)C2CC(C=NOC)CC2C1=O (mixture of isomers) [I-c-14] | 100% | 100% | 100% | 100% | 100% |  |  |  |  |  |  | 
CCc1cc(C)cc(CC)c1C1C(=O)C2CC(CCC(C)=NOC)CC2C1=O (racemic) [I-a-42, 2-(2,6-diethyl-4-methylphenyl)-5-[3-methoxyiminobutyl]-tetrahydropentalene-1,3-dione] | 100% |  | 100% | 90% | 100% |  |  |  | 100% |  |  | 
Cc1cc(C)c(C2C(=O)C3CC(C=NOC(C)C)CC3C2=O)c(C)c1 (mixture of isomers) [I-a-31] | 90% | 100% | 90% | 90% | 80% |  |  |  |  |  |  | 
CCc1cc(C)cc(CC)c1C1=C(OC(=O)C(C)C)C2CC(COC(C)=O)CC2C1=O (mixture of isomers) [I-b-23] | 90% | 90% | 100% | 80% | 90% |  |  |  |  |  |  | 
CCOC(=O)OC1=C(c2c(CC)cc(C)cc2CC)C(=O)C2CC(CCC#N)CC12 (mixture of isomers) [I-c-21] | 100% | 90% | 100% |  | 100% |  |  |  |  |  |  | 
CCOC(=O)CC1CC2C(=O)C(c3c(CC)cc(C)cc3CC)=C(OC(=O)OCC)C2C1 (mixture of isomers) [I-c-16] |  | 80% | 80% |  |  |  |  |  |  |  |  | 
CCOC(=O)OC1=C(c2c(CC)cc(C)cc2CC)C(=O)C2CC(C(C)=O)CC12 (mixture of isomers) [I-c-17] | 100% | 80% | 90% | 90% | 90% |  |  |  |  |  |  | 
CCc1cc(C)cc(CC)c1C1C(=O)C2CC(C(C)=O)CC2C1=O (mixture of isomers) [I-a-33] | 100% | 90% | 100% | 100% | 100% |  |  |  |  |  |  | 
CCOC(=O)OC1=C(c2c(CC)cc(C)cc2CC)C(=O)C2CC(COC(C)=O)CC12 (mixture of isomers) [I-c-15] | 90% | 80% | 90% |  |  |  |  |  |  |  |  | 
CCc1cc(C)cc(CC)c1C1C(=O)C2CC(C(C)=NOC)CC2C1=O (mixture of isomers) [I-a-34] | 100% | 90% | 100% | 100% |  |  |  |  |  |  |  | 
CCc1cc(C)cc(CC)c1C1C(=O)C2CC(C=O)CC2C1OC(=O)C(C)(C)C (stereo not shown) [I-b-2, 2-(2,6-diethyl-4-methylphenyl)-5-formyl-3-oxooctahydropentalen-1-yl 2,2-dimethylpropanoate] |  |  | 100% |  |  | 80% | 100% | 100% | 100% | 80% | 90% | 
CCc1cc(C)cc(CC)c1C1=C(OCc2ccccc2)C2CC(CBr)CC2C1=O (mixture of isomers) [I-a-61] | 90% | 90% | 90% |  |  |  |  |  |  |  |  | 
CCc1cc(C)cc(CC)c1C1=C(OC(=O)C(C)(C)C)C2CC(C3OCCCO3)CC2C1=O (mixture of isomers) [I-b-3] | 100% |  | 100% | 100% |  | 90% | 100% | 100% |  | 100% | 100% | 90%
CCOC(=O)OC1=C(c2c(CC)cc(C)cc2CC)C(=O)C2CC(C(C)=NOC)CC12 (mixture of isomers) [I-c-18] | 100% |  | 90% | 100% | 80% |  |  |  |  |  |  | 
Cc1cc(C)c(C2C(=O)C3CC(C4OCCO4)CC3C2=O)c(C)c1 (mixture of isomers) [I-a-30] | 90% | 90% | 90% |  |  |  |  |  |  |  |  | 
